Measurements reported in patent US20230337677A1, “ARYL AND PYRIDYL AMIDE PESTICIDES AND COMPOSITIONS THEREOF” (University of Florida Research Foundation, Incorporated, priority 2019, published 2023).

Experiments:
[1] = system: Aedes aegypti mosquitoes, insecticide-susceptible Orlando strain; type: in vivo; conditions: for 1 h Repellency EC50, μg/cm^2: (OR); for 1 h % Repellency, 100 μg/cm^2: screened at 100 μg/cm^2, strain not given
How it was run: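 Sixteen female mosquitoes per glass tube facing netting-shielded filter paper treated with acetone solutions (30-0.01 μg/ml; screen at 100 μg/cm^2), no contact. Proportion on treated side scored up to 60 min, then flight-out checked 30 min; mortality after 24 hr constant exposure.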

[2] = system: Aedes aegypti mosquitoes, pyrethroid-resistant Puerto Rico strain; assay: Vapor repellency glass tube assay (1 h), resistant strain; type: in vivo; conditions: with resistance ratio (PR)
[3] = system: Aedes aegypti strain Orlando (sensitive); assay: Topical toxicity (24 hour mortality), Ae. aegypti Orlando; type: in vivo; conditions: topical application, 24 h mortality, female adults, susceptible Orlando strain
How it was run: (§1)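 Females aged 3–6 days received 200 nL of compound in ethanol topically on the thorax, 10 per concentration per replicate, and were kept at 28° C with sugar water.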

[4] = system: Aedes aegypti strain Puerto Rico (PR, resistant to permethrin); assay: Topical toxicity (24 hour mortality), Ae. aegypti Puerto Rico; type: in vivo; conditions: for Ae. aegypti RR (resistance ratio): 24 h LD50 resistant strain (PR)/24 h LD50 susceptible strain (OR); for Ae. aegypti PR LD50: topical application, 24 h mortality, female adults, permethrin-resistant Puerto Rico strain
Experimental: (§2) The Aedes aegypti strains Orlando (sensitive) as well as the Puerto Rico (PR, resistant to permethrin) were used. The Anopheles gambiae (G3 sensitive strain, as well as Akron kdr (Akdr) strain, resistant to pyrethroids were also assessed. The larvae were provided by the USDA, Gainesville Fl, and raised in a pan with tap water maintained at 28° C. Larvae were fed a ground liver and yeast mixture, and pupae were placed in emergence cages. Adults were held at 28° C. and provided with cotton balls soaked in 10% sugar water for rearing and for all bioassays.
(§3) Female adults from 3 to 6 days were used for the experiments. The drug was dissolved in ethanol and then applied with a micro-applicator on the thorax, between the legs: 200 nL of drug per female mosquito, with different concentrations of the drug; 10 mosquitos were treated together per concentration per replicate, and put together in a small container with free access to sweet water. Mortality, i.e. no visible movement, was assessed 24 hours after treatment. Every compound was assessed on at least 3 different cohorts of mosquitoes, and the LD50 values and slopes were determined with Probit analysis, corrected with Abbott's formula.

[5] = system: Anopheles gambiae G3 sensitive strain; assay: Topical toxicity (24 hour mortality), An. gambiae G3; type: in vivo; conditions: topical application, 24 h mortality, female adults, susceptible strain G3
How it was run: as §1

[6] = system: Anopheles gambiae Akron kdr (Akdr) strain, resistant to pyrethroids; assay: Topical toxicity (24 hour mortality), An. gambiae Akdr; type: in vivo; conditions: for An. gambiae RR (resistance ratio): 24 h LD50 resistant strain (AKDR)/24 h LD50 susceptible strain (G3); for An. gambiae AKDR LD50: topical application, 24 h mortality, female adults, pyrethroid-resistant Akdr strain
How it was run: as §1

[7] = system: Aedes aegypti mosquitoes, insecticide-susceptible Orlando strain; assay: whole plant or invertebrate; conditions: 24 h, read-out: 24 h % Mortality, 100 μg/cm^2
[8] = system: Aedes aegypti mosquitoes, insecticide-susceptible Orlando strain; conditions: for 24 h LC50, μg/cm^2: LC50 (OR)
[9] = system: Aedes aegypti and Anopheles gambiae female adults; assay: Analysis of topical toxicity (statements in words, species not given); type: in vivo; conditions: structure-activity analysis of Table 4
Experimental: as §2
as §3, with “formula. […]” for “formula.”

Structure (SMILES) | 1 h % Repellency, 100 μg/cm^2 [1] [%] | Ae. aegypti OR LD50 [3] [ng/mg] | An. gambiae G3 LD50 [5] [ng/mg] | An. gambiae RR (resistance ratio) [6] | An. gambiae AKDR LD50 [6] [ng/mg] | topical toxicity, statement in words (Example 10) [9] | further results
CCN(CC)C(=O)c1cccc(C)c1 [DEET, N,N-diethyl-m-toluamide, reference compound] |  |  |  |  |  |  | 1 h Repellency EC50, μg/cm^2 [1]: 35 μg/cm^2; response in glass tube assay (FIG. 1) ([1]; representative response, in words): Mosquitoes moved away from the DEET treated side; 1 h Repellency EC50, μg/cm^2 (RR) [2]: 79 μg/cm^2
O=C(Nc1cc(Cl)nc(Cl)c1)C(F)F [GMR028] | 12 | 266 | 43.1 | 0.7 | 28.2 |  | Ae. aegypti RR (resistance ratio) [4]: 3.2; Ae. aegypti PR LD50 [4]: 854 ng/mg; mortality at 100 µg/cm2 [7]: 59%
O=C(Nc1cc(Cl)nc(Cl)c1)C(F)(F)F [GMR029] | 42 | 190 | 27.9 | 1.6 | 45.3 |  | Ae. aegypti RR (resistance ratio) [4]: 1.3; Ae. aegypti PR LD50 [4]: 238 ng/mg; 24 h LC50, μg/cm^2 [8]: 181 μg/cm^2; mortality at 100 µg/cm2 [7]: 24%
O=C(Nc1cc(Cl)nc(Cl)c1)C(F)(F)C(F)(F)F [GMR030] | 28 | 49 | 9.6 | 1.5 | 14.2 |  | Ae. aegypti RR (resistance ratio) [4]: 1.0; Ae. aegypti PR LD50 [4]: 50 ng/mg; 24 h LC50, μg/cm^2 [8]: 35 μg/cm^2; mortality at 100 µg/cm2 [7]: 85%
CCOC(=O)Nc1cc(Cl)nc(Cl)c1 [GMR032] |  | 892 | 18.3 | 3.6 | 66.0 | promising activity | 
CC(C)(C)OC(=O)Nc1cc(Cl)nc(Cl)c1 [GMR033] |  | 1199 | 21.4 | 2.2 | 46.7 | promising activity | 
O=C(Nc1cc(Cl)nc(Cl)c1)C(F)(C(F)(F)F)C(F)(F)F [GMR053] |  | 17 | 5.8 | 0.5 | 2.7 | retained high mortality | Ae. aegypti RR (resistance ratio) [4]: 0.4; Ae. aegypti PR LD50 [4]: 7.10 ng/mg
CCCCCC(=O)Nc1cc(Cl)nc(Cl)c1 [GMR054] |  | >3000 | >100 |  | >100 | reduced activity | 
CCCCCC(=O)Nc1cc(Cl)nc(C(F)(F)F)c1 [GMR067] |  | 3506 |  |  | 3506 | reduced activity | 
CC(F)(F)C1(C(=O)Nc2cc(Cl)nc(Cl)c2)CC1 [GMR076] |  | 719 |  |  | >100 | reduced toxicity | 
O=C(Nc1cc(Cl)nc(Cl)c1)C(F)(F)C(F)(F)C(F)(F)C(F)(F)C(=O)Nc1cc(Cl)nc(Cl)c1 [GMR077] |  | 5373 |  |  | >100 | reduced activity | 
C#C[C@@H]1[C@@H](C(=O)Nc2cc(Cl)nc(Cl)c2)C1(C)C [GMR086] |  | >6000 | >50 |  | >50 | reduced toxicity | 
O=C(Nc1cc(Cl)nc(Cl)c1)c1c(F)c(F)c(F)c(F)c1F [GMR089] |  | >6000 | >100 |  | >100 | reduction in toxicity | 
O=C(Nc1cc(Cl)nc(C(F)(F)F)c1)C(F)(C(F)(F)F)C(F)(F)F [GMR092, N-(2-chloro-6-(trifluoromethyl)pyridin-4-yl)-2,3,3,3-tetrafluoro-2-(trifluoromethyl)propanamide] |  | 8.8 | 9.60 | 0.3 | 3.30 | retained high mortality | 
C/C=C\C[C@H]1C(=O)CC[C@@H]1CC(=O)Nc1cc(F)c(F)c(F)c1 [GMR098] | 18 | >6000 | >1000 |  | >1000 | reduced toxicity | 24 h % Mortality, 100 μg/cm^2 ([8]; in vivo): 0%
O=C(NC(=O)c1cc(Cl)nc(Cl)c1)c1cc(Cl)nc(Cl)c1 [GMR117] | 62 | >1500 |  |  |  | reduced activity | vapor repellency / mortality, statement in words (Example 8) ([1]; structure-activity analysis of Table 2): some repellency and mortality; mortality at 100 µg/cm2 [7]: 100%
O=C(Nc1cc(Cl)nc(Cl)c1)C(F)(F)Sc1ccc(F)cc1 [GMR147] |  | 1983 |  |  |  | reduction in toxicity | 
CC(=O)Nc1ccccc1C(F)(F)F [MTFI-1-4A] | 78 |  |  |  |  |  | 1 h Repellency EC50, μg/cm^2 [1]: 26 μg/cm^2; 1 h Repellency EC50, μg/cm^2 (RR) [2]: 81 μg/cm^2
O=C(Nc1cc(C(F)(F)F)cc(C(F)(F)F)c1)C(F)F [MTFI-4-2B] | 100 |  |  |  |  |  | 1 h Repellency EC50, μg/cm^2 [1]: 15 μg/cm^2; 1 h Repellency EC50, μg/cm^2 (RR) [2]: 24 μg/cm^2; mortality at 100 µg/cm2 [7]: 88%
CNC(=O)Oc1ccccc1OC(C)C [Propoxur] |  | 3.0 | 3.2 | 63 | 201 |  | Ae. aegypti RR (resistance ratio) [4]: 0.0
